According to patent US9873693B2 (Sunesis Pharmaceuticals, Inc., priority 2006, dated 2018):
pEC50, pIC50: −log10 of the molar value. Read-outs that look alike come from different tables or passages of the source.

Legend:
phosphorylated PDK1 = phosphorylated PDK1 (Homo sapiens (Human), UniProt O15530); experiment: PDK1 kinase assay (coupled PDK1/AKT/FAM-crosstide, IMAP); assay type: biochemical; conditions: 0.5 nM phosphorylated PDK1, 24 μM ATP; read-out: Inhibition of phospo-PDK1 in vitro IC50
dephosphorylated PDK1 = dephosphorylated PDK1 (Homo sapiens (Human), UniProt O15530); experiment: as above; assay type: biochemical; conditions: 25 nM un-phosphorylated PDK1, 24 μM ATP; read-out: Inhibition of dephospo-PDK1 in vitro IC50
Outline: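 The FAM-crosstide phosphorylation readout was IMAP polarization (ex 485/em 530 nm, 2 h binding), with 4-parameter fits of ΔmP data. The reaction ran 30 min at 25 °C with 24 μM ATP, and contained 25 nM phosphatase-treated PDK1 (aa 51–360) plus 30 nM unphosphorylated AKT2-PIFtide and 100 nM substrate. Buffer was 10 mM Tris pH 7.2, 10 mM MgCl2, 0.01% Triton X-100 and 1 mM DTT.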

phospho-akt (Thr308) = phospho-akt (Thr308) MSD ELISA in PC-3 cells; assay type: cell-based; conditions: Homo sapiens, PC-3 cells; for pEC50 / EC50: PC-3, 2 h, 2 hours, no serum; for pEC50: read-out: Inhibition of P308 Akt in cells using MSD EC50; for inhibition at 1 µM / inhibition at 10 µM: read-out: Percent Inhibition of phospho-Akt (308) By MSD ELISA; for EC50: read-out: Reduction of Cellular Levels of Akt p308 By MSD ELISA (EC50 μM)
Outline: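 Read-out is MSD electrochemiluminescence after lysate capture overnight at 4 degrees and 1 hr RT detection-antibody step. Before lysis, overnight-plated PC-3 cells received three-fold serial dilutions of inhibitor in serum-free medium, with DMSO-only high controls.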

Phospho-T308 Akt = Phospho-T308 Akt detection using immunoblot (western blot) in PC-3 cells; assay type: cell-based; conditions: for Reduction of Cellular Levels of Akt p308 By Western: 2 hour incubation, concentration not given in Table 2; for inhibition at 5 µM / inhibition at 2 µM: Homo sapiens, read-out: Percent Inhibition of phospho-Akt (308) By Western
Protocol: A Phospho-T308 Akt detection using immunoblot (western blot) analysis was performed as described below.
PC-3 prostate cells were plated in a 6 well plate in F12K media (Invitrogen, Carlsbad, Calif.) plus 10% FBS (Invitrogen) and placed in incubator overnight. The stock of compound A was a 50 mM solution in DMSO. 1000× dilutions of the compound were made in DMSO. The 1000× dilutions include, 35 mM, 25 mM, 15 mM, 10 mM, 7 mM, 5 mM, and 1 mM. 1 μl of the 1000× dilutions was added to 1 ml F12K media without serum for final concentrations of […]. 1 μl of DMSO was added to 1 ml media with no serum for a control. The 1 ml DMSO or compound plus media was then added to the cells. Following a 2 hour incubation at 37° C., cells were harvested and washed in PBS and subjected to centrifugation at 3,300 rpm for 5 minutes. Cells were lysed in 100 μl of Bio Rad Bioplex buffer containing protease inhibitors (BioRad, Hercules, Calif.) for 30 minutes on ice followed by centrifugation at 13,000 rpm for 5 minutes. The protein content of the supernatant was assayed using DC Protein Assay (BioRad). 25 μl of protein was added to 4× sample buffer (Invitrogen) and sample reducer (Invitrogen) and run on a 4-12% NuPage gel (Invitrogen). Proteins were then transferred to nitrocellulose (Invitrogen). The membrane was blocked in Tris-buffered saline (Sigma, St. Louis, Mo.) plus 0.1% Tween (Sigma) (T-TBS) plus 5% blotting grade milk (BioRad) for 60 minutes. Membranes were then incubated in T-TBS plus 5% BSA (Sigma) plus 1:1000 of anti-phospho akt (Thr 308) (Cell Signaling Technology, Beverly, Mass.) overnight at 4° C. Membranes were washed in T-TBS then incubated in 1:2000 of anti-rabbit-HRP (Cell Signaling) in TTBS plus 5% milk. Membranes were washed again and proteins were visualized with Super Signal West Pico (Pierce, Rockford, Ill.) and using Kodak BioMax MR film (Kodak, Rochester, N.Y.).
Phospho-akt 308 protein bands on the film were quantified using densitometry. An Alpha Imager (Alpha Innotech Corp, San Leandro, Calif.) using AlphaEase FC software version 4.1.0 (Alpha Innotech Corp.) was used to quantitate protein bands. Briefly, a rectangle of equal size was placed around each protein band as well as a background spot on the film. The densitometry values (IDV=Integrated Density Value) obtained for the background spot was then subtracted from the values obtained for the protein bands. These values were used to obtain an EC50 value using non-linear regression analysis in GraphPad Prism Version 4.00 (Graph Pad Prism, San Diego, Calif.). Percent decrease in expression of phosphoh-akt 308 were also measured specifically at 2 μM and 5 μM levels of inhibitor.

Sequence of dephosphorylated PDK1 (O15530 51-360): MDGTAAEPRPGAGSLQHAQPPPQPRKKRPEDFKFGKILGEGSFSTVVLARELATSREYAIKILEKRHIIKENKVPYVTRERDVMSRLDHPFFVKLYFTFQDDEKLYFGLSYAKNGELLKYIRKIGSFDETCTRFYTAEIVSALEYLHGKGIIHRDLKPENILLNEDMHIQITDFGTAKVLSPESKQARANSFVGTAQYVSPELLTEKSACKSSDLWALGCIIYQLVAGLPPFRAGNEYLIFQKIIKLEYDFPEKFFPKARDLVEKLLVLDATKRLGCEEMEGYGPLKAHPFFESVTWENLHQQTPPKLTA
Sequence of phosphorylated PDK1 (O15530 51-360): as above

SMILES | pIC50 (phosphorylated PDK1) | pIC50 (dephosphorylated PDK1) | pEC50 (phospho-akt (Thr308)) | inhibition at 1 µM (phospho-akt (Thr308)) [%] | inhibition at 10 µM (phospho-akt (Thr308)) [%] | Reduction of Cellular Levels of Akt p308 By Western (Phospho-T308 Akt) | inhibition at 5 µM (Phospho-T308 Akt) [%] | EC50 (phospho-akt (Thr308)) [µM] | inhibition at 2 µM (Phospho-T308 Akt) [%]
CC(C)(C)OC(=O)NC[C@@H](NC(=O)c1cccn(Cc2ccc(F)c(F)c2)c1=O)c1nc(-c2c[nH]c3ncccc23)cs1 [Cpd 295] | > 6.30 | > 6.30 | 5.30 to 6.00 | < 25 | > 75 | bb (inhibition of from 25% to 75%) | 25 to 75 | – | –
CC(C)(C)OC(=O)C[C@@H](NC(=O)c1cccn(Cc2ccc(F)c(F)c2)c1=O)c1nnc(-c2c[nH]c3ncccc23)o1 [Cpd 286] | > 6.30 | > 6.30 | > 6.00 | 25 to 75 | > 75 | bbb (inhibition of more than 75%) | > 75 | – | –
O=C(NC1CCCc2ccc(-c3c[nH]c4ncccc34)cc21)c1cccn(Cc2ccc(F)c(F)c2)c1=O (stereo not drawn) [Cpd 16] | > 6.30 | > 6.30 | < 5.30 | – | – | bb (inhibition of from 25% to 75%) | – | > 5 | < 25
COC(=O)c1cc(-c2cccc(CNC(=O)c3cccn(Cc4ccc(F)c(F)c4)c3=O)c2)c[nH]1 [Cpd 230] | > 6.30 | > 6.30 | – | 25 to 75 | > 75 | b (inhibition of less 25%) | < 25 | – | –
O=C(NCc1cccc(-c2cn[nH]c2)c1)c1cccn(Cc2ccc(F)c(F)c2)c1=O [Cpd 222] | 5.00 to 6.30 | > 6.30 | – | – | – | bb (inhibition of from 25% to 75%) | 25 to 75 | > 5 | –
NC(=O)C[C@@H](NC(=O)c1cccn(Cc2ccc(F)c(F)c2)c1=O)c1ncc(-c2c[nH]c3ncccc23)o1 [Cpd 306] | > 6.30 | > 6.30 | – | < 25 | 25 to 75 | bbb (inhibition of more than 75%) | > 75 | – | –
COC(=O)[C@H](COc1ccc2[nH]c(=O)[nH]c2c1)NC(=O)c1cccn(Cc2ccc(F)c(F)c2)c1=O [Cpd 135] | > 6.30 | > 6.30 | 5.30 to 6.00 | – | – | bbb (inhibition of more than 75%) | > 75 | 1 to 5 | –
O=C(NCc1noc(-c2c[nH]c3ncccc23)n1)c1cccn(Cc2cccc(F)c2)c1=O [Cpd 302] | > 6.30 | > 6.30 | – | < 25 | 25 to 75 | bbb (inhibition of more than 75%) | > 75 | – | –
O=C(O)CC[C@@H](NC(=O)c1cccn(Cc2ccc(F)c(F)c2)c1=O)c1nc(-c2c[nH]c3ncccc23)co1 [Cpd 307] | > 6.30 | > 6.30 | – | < 25 | < 25 | b (inhibition of less 25%) | < 25 | – | –
COC(=O)[C@@H](COc1ccc2[nH]c(=O)[nH]c2c1)NC(=O)c1cccn(Cc2ccc(F)c(F)c2)c1=O [Cpd 293] | > 6.30 | > 6.30 | – | 25 to 75 | > 75 | bb (inhibition of from 25% to 75%) | 25 to 75 | – | –
O=C(C[C@@H](NC(=O)c1cccn(Cc2ccc(F)c(F)c2)c1=O)c1nnc(-c2c[nH]c3ncccc23)o1)NCCN1CCCC1 [Cpd 298] | > 6.30 | > 6.30 | – | < 25 | < 25 | b (inhibition of less 25%) | < 25 | – | –
CN(C)C(=O)C[C@@H](NC(=O)c1cccn(Cc2ccc(F)c(F)c2)c1=O)c1nnc(-c2c[nH]c3ncccc23)o1 [Cpd 290] | 5.00 to 6.30 | > 6.30 | – | < 25 | 25 to 75 | bb (inhibition of from 25% to 75%) | 25 to 75 | – | –
O=C(NCc1ccc(-c2c[nH]c3nccnc23)s1)c1cccn(Cc2ccc(F)c(F)c2)c1=O [Cpd 14] | > 6.30 | > 6.30 | – | 25 to 75 | 25 to 75 | bb (inhibition of from 25% to 75%) | – | – | 25 to 75
C=CCOC(=O)C[C@@H](NC(=O)c1cccn(Cc2ccc(F)c(F)c2)c1=O)c1ncc(-c2c[nH]c3ncccc23)o1 [Cpd 301] | > 6.30 | > 6.30 | 5.30 to 6.00 | 25 to 75 | 25 to 75 | bbb (inhibition of more than 75%) | > 75 | 1 to 5 | –
O=C(NCc1noc(-c2c[nH]c3ncccc23)n1)c1cc(Cl)cn(Cc2ccc(Cl)cc2)c1=O [Cpd 309] | > 6.30 | > 6.30 | 5.30 to 6.00 | 25 to 75 | > 75 | bb (inhibition of from 25% to 75%) | 25 to 75 | – | –
O=C(NCc1cnc(-c2c[nH]c3ncccc23)s1)c1cccn(Cc2ccc(F)c(F)c2)c1=O [Cpd 134] | > 6.30 | > 6.30 | – | < 25 | > 75 | bbb (inhibition of more than 75%) | > 75 | – | –
O=C(O)C[C@@H](NC(=O)c1cccn(Cc2ccc(F)c(F)c2)c1=O)c1nnc(-c2c[nH]c3ncccc23)o1 [Cpd 287] | > 6.30 | > 6.30 | – | < 25 | < 25 | bb (inhibition of from 25% to 75%) | 25 to 75 | – | –
NC[C@@H](NC(=O)c1cccn(Cc2ccc(F)c(F)c2)c1=O)c1nc(-c2c[nH]c3ncccc23)cs1 [Cpd 296] | > 6.30 | > 6.30 | 5.30 to 6.00 | < 25 | > 75 | bb (inhibition of from 25% to 75%) | 25 to 75 | – | –
O=C(NCc1noc(-c2c[nH]c3ncccc23)n1)c1cccn(Cc2ccc(F)cc2)c1=O [Cpd 303] | > 6.30 | > 6.30 | – | < 25 | < 25 | bbb (inhibition of more than 75%) | > 75 | – | –
O=C(NCc1noc(-c2c[nH]c3ncccc23)n1)c1cc(Cl)cn(Cc2cccc(F)c2)c1=O [Cpd 310] | > 6.30 | > 6.30 | 5.30 to 6.00 | 25 to 75 | 25 to 75 | bb (inhibition of from 25% to 75%) | 25 to 75 | – | –
